{"source": "patent US20180085386A1", "about": "“URIDINE MONOPHOSPHATE AND TRIPHOSPHATE DERIVATIVES, COMPOSITIONS AND METHODS OF USE” (Tufts University, priority 2016, published 2018)", "key": {"[1]": {"tested_on": "PSAPP mice", "assay": "Plaque load in cortex and hippocampus by amyloid beta immunostaining", "format": "in vivo, mouse", "experimental": "PSB0474 was systemically administered to PSAPP mice via intraperitoneal injection for 2, 4 and 6 consecutive days. In one group, prior to evaluation and following to administration for 6 consecutive days, treatment was suspended for two weeks (6+2 weeks group). Brains were then fixed and plaque load was evaluated by immunostaining with the amyloid beta specific antibodies: β1-40 and β1-42. Representative images of plaque load in cortex and hippocampus from animals that received injections of PSB0474 according to the foregoing injection schedules are shown in FIGS. 1(A)-(D). […] Whereas, when administration of PSB0474 was stopped for 2 weeks following six consecutive days of treatment (denoted as the 6+2 weeks group), β1-40 staining rebounded; although to a level lower than observed in mice treated with saline as a vehicle control. […] FIGS. 2C-2F depict data obtained following administration of different dosages of PSB0474.\nTo generate these graphs showing plaque load, mice were euthanized, brain sections cut and antibodies directed against Aβ42 were used to disclose Aβ plaques. Images were acquired digitally and an algorithm was applied to threshold the image so that plaques were isolated from the background. The algorithm then calculated the percent area of the field of view occupied by the plaques.\nBrain samples were collected for Abeta analysis with immunostaining. Brains samples were collected after transcardial perfusion with phosphate buffer and 4% paraformaldehyde. Floating brain sections (40 micron) were collected using a microtome. Immunostaining for […] and Aβ42 were performed according to previously established protocol. Images with DAB staining were collected with brightfield microscopy and analyzed with ImageJ Macro. All data analysis and statistics were performed in GraphPad Prism 6.0.\n(§1) In this study, treatment of PSAPP mice commenced when the mice were pre-symptomatic. Specifically, treatment was initiated when the mice were approximately 3 months old. PSAPP mice were treated for 100 days with daily, intraperitoneal injections of 10 μg/kg of compound 5 or vehicle. Following treatment, mice were assessed in a fear conditioning task for memory formation. Subsequently, plaque burden in the mice was also evaluated. The data provided in Examples 16 and 17 is for 19 vehicle treated mice and 22 compound treated mice. The data provided for the vehicle-treated group is the average across those mice, and error bars depict the standard error (SEM). Similarly, the data provided for the compound-treated group is the average across those mice, and the error bars depict the SEM.\nas §1, with “assessed for the following: concentration of circulating pro-inflammatory cytokines; amyloid beta load (e.g., plaque burden); and memory” for “assessed”, “formation.” for “formation. Subsequently, plaque burden in the mice was also evaluated.”, “Example 18” for “Examples 16 and 17”, “18” for “19”, “20” for “22”, “SEM. Mice were first evaluated in the fear conditioning task experiment. Subsequently, plasma was taken for multiplex cytokine analysis of circulating levels of cytokine in the plasma. Finally, plaque burden was assessed in the cortex and hippocampus of the mice.” for “SEM.”\nIn this study, treatment of PSAPP mice commenced after the mice were already symptomatic. Specifically, treatment was initiated when the mice were approximately 6 months old. […]"}, "[2]": {"tested_on": "PSAPP mice", "assay": "Contextual fear conditioning test (freezing)", "format": "in vivo, mouse", "settings": "vs vehicle", "experimental": "In this study, the diphosphate derivative of compound 5 was injected intraperitoneally into 6 to 7-month-old PSAPP and WT mice daily at two different doses, i.e., 1 μg/kg or 1 mg/kg of the diphosphate derivative of compound 5 (in 1% DMSO/PBS) for 7 consecutive days. Consistent with the results observed following acute UDP or PSB0474 treatment, treatment with the diphosphate derivative of compound 5 increased total freezing percentage in the context test in PSAPP mice (FIG. 4). […] FIG. 4 depicts the results of experiments using the contextual fear conditioning test with PSAPP mice treated with vehicle control (black bar at center of graph). […]\nIn this study, treatment of PSAPP mice commenced when the mice were pre-symptomatic. […] Following treatment, mice were assessed in a fear conditioning task for memory formation. Subsequently, plaque burden in the mice was also evaluated. […]\nTreatment with compound 5 prevented impairments in contextual fear memory. […] Memory is assessed by the percent time that mice “freeze” 24 hours after a fear inducing electric shock. […]\nIn this study, treatment of PSAPP mice commenced when the mice were pre-symptomatic. […] Following treatment, mice were assessed for the following: concentration of circulating pro-inflammatory cytokines; amyloid beta load (e.g., plaque burden); and memory in a fear conditioning task for memory formation. […]"}, "[3]": {"assay": "Cmax after effective dose of compound 5", "settings": "mouse, in vivo, 10 ug/kg; effective dose of 10 μg/kg"}, "[4]": {"tested_on": "PSAPP mice", "assay": "Plaque load in cortex and hippocampus by amyloid beta immunostaining", "format": "in vivo, mouse", "settings": "10 μg/kg i.p. once per day for 7 days; PS1/APP mice 26 weeks; cortex; FIG. 6B"}}, "data": [{"smiles": "O=c1ccn([C@@H]2O[C@H](CO)C(O)C2O)c(=O)n1Cc1noc2ccccc12", "note": "(stereo in doubt) [compound 5]", "values": [{"measurement": "plaque size", "setting": "[1]; 10 μg/kg i.p. daily for 7 days from ~6 months, Example 20, FIG. 17(B)", "result": "decrease"}, {"measurement": "Amyloid beta accumulation in the cortex", "setting": "[1]; 10 μg/kg i.p. daily for 7 days from ~6 months, using Aβ40, Example 20, FIG. 17(A) upper panel", "result": "decreased"}, {"measurement": "Amyloid beta accumulation in the hippocampus", "setting": "[1]; 10 μg/kg i.p. daily for 7 days from ~6 months, using Aβ42, Example 20, FIG. 17(A) lower panel", "result": "decreased"}, {"measurement": "plaque burden", "setting": "[1]; 10 μg/kg i.p. daily for 100 days from ~3 months of age, vs vehicle, Example 17, FIG. 9", "result": "reduced"}, {"measurement": "Amyloid beta accumulation in the cortex", "setting": "[1]; 10 μg/kg i.p. daily for 100 days from ~3 months, vs vehicle, Example 19, FIG. 15(A)", "result": "decreased"}, {"measurement": "Amyloid beta accumulation in the hippocampus", "setting": "[1]; 10 μg/kg i.p. daily for 100 days from ~3 months, vs vehicle, Example 19, FIG. 15(B)", "result": "decreased"}, {"measurement": "size distribution of remaining plaques", "setting": "[1]; 10 μg/kg i.p. once per day for 7 days, PS1/APP mice 26 weeks", "result": "significantly reduced"}, {"measurement": "Aβ40 plaque burden", "setting": "[1]; 10 μg/kg i.p. once per day for 7 days, PS1/APP mice 26 weeks, cortex, FIG. 6A", "result": "significantly reduced"}, {"measurement": "freezing time in contextual fear memory test", "setting": "[2]; 10 μg/kg i.p. daily for 100 days from ~3 months of age, Example 17, FIG. 8", "result": "statistically significant increase"}, {"measurement": "freezing time in contextual fear memory test", "setting": "[2]; 10 μg/kg i.p. daily for 100 days from ~3 months, Example 19, FIG. 15(C)", "result": "statistically significant increase"}, {"measurement": "Cmax", "setting": "[3]", "result": 13, "unit": "nM"}, {"measurement": "Aβ42 plaque burden", "setting": "[4]", "result": "significantly reduced"}]}]}
